In patent US10292391B2, “Pesticidally active 1,2,4-triazole derivatives with sulphur containing substituents” (Syngenta Participations AG, priority 2015, dated 2019):

Assays:
Type in all cases: in vivo
[1] = system: Spodoptera littoralis (Egyptian Cotton Leaf Worm); assay: Activity against Spodoptera littoralis, sprayed cotton leaf discs; settings: foliar, 72 h, application rate of 200 ppm, L1 larvae, 3 days after infestation, read-out: control (at least one of mortality, anti-feedant effect, and growth inhibition)
Procedure: Cotton leaf discs were placed on agar in 24-well microtiter plates and sprayed with aqueous test solutions prepared from 10,000 ppm DMSO stock solutions. After drying the leaf discs were infested with five L1 larvae. The samples were assessed for mortality, anti-feedant effect, and growth inhibition in comparison to untreated samples 3 days after infestation. Control of Spodoptera littoralis by a test sample is when at least one of mortality, anti-feedant effect, and growth inhibition is higher than the untreated sample.

[2] = system: Spodoptera littoralis (Egyptian Cotton Leaf Worm); assay: Activity against Spodoptera littoralis, systemic via lettuce grown on treated agar; settings: 144 h, test rate of 12.5 ppm, root uptake by lettuce, 6 days after infestation, read-out: effect in at least one of the three categories (mortality, anti-feedancy, or growth inhibition)
Description: Test compounds were applied by pipette from 10,000 ppm DMSO stock solutions into 24-well plates and mixed with agar. Lettuce seeds were placed on the agar and the multi well plate was closed by another plate which contains also agar. After 7 days the roots have absorbed the compound and the lettuce has grown into the lid plate. The lettuce leafs were now cut off into the lid plate. Spodoptera eggs were pipetted through a plastic stencil on a humid gel blotting paper and the plate closed with it. The samples were assessed for mortality, anti-feedant effect and growth inhibition in comparison to untreated samples 6 days after infestation.

[3] = system: Plutella xylostella (Diamond Back Moth); assay: Activity against Plutella xylostella, treated artificial diet; settings: 120 h, application rate of 200 ppm, L2 larvae, 5 days after infestation, read-out: effect in at least one of the two categories (mortality or growth inhibition)
Procedure: (§1) 24-well microtiter plates with artificial diet were treated with aqueous test solutions prepared from 10,000 ppm DMSO stock solutions by pipetting. After drying, the plates were infested with L2 larvae (10 to 15 per well). The samples were assessed for mortality and growth inhibition in comparison to untreated samples 5 days after infestation.

[4] = system: Diabrotica Balteata (Corn Root Worm); assay: Activity against Diabrotica balteata, sprayed maize sprouts; settings: 96 h, application rate of 200 ppm, L2 larvae, 4 days after infestation, read-out: effect in at least one of the two categories (mortality or growth inhibition)
Procedure: as §1, with “Maize sprouts, placed on an agar layer in 24-well” for “24-well”, “plates” for “plates with artificial diet”, “spraying.” for “pipetting.”, “(6” for “(10”, “10” for “15”, “4” for “5”

[5] = system: Myzus persicae (Green Peach Aphid); assay: Activity against Myzus persicae, sprayed sunflower leaf discs; settings: foliar, 144 h, application rate of 200 ppm, aphid population of mixed ages, 6 days after infestation
Procedure: (§2) Sunflower leaf discs were placed on agar in a 24-well microtiter plate and sprayed with aqueous test solutions prepared from 10,000 ppm DMSO stock solutions. After drying, the leaf discs were infested with an aphid population of mixed ages. The samples were assessed for mortality 6 days after infestation.

[6] = system: Frankliniella occidentalis (Western Flower Thrips); assay: Activity against Frankliniella occidentalis, sprayed sunflower leaf discs; settings: foliar, 168 h, application rate of 200 ppm, population of mixed ages, 7 days after infestation
Procedure: as §2, with “in” for “in a”, “plates” for “plate”, “10,000” for “10,000 ppm”, “drying” for “drying,”, “a Frankliniella” for “an aphid”, “7” for “6”

[7] = system: Euschistus heros(Neotropical Brown Stink Bug); assay: Activity against Euschistus heros, sprayed soybean leaf; settings: 120 h, application rate of 200 ppm, N-2 nymphs, 5 days after infestation, read-out: effect in at least one of the two categories (mortality or growth inhibition)
Procedure: Soybean leaf on agar in 24-well microtiter plates were sprayed with aqueous test solutions prepared from 10,000 ppm DMSO stock solutions. After drying the leaf were infested with N-2 nymphs. The samples were assessed for mortality and growth inhibition in comparison to untreated samples 5 days after infestation.

[8] = system: Thrips tabaci (Onion Thrips); assay: Activity against Thrips tabaci, sprayed sunflower leaf discs; settings: foliar, 144 h, application rate of 200 ppm, thrips population of mixed ages, 6 days after infestation
Procedure: as §2, with “in” for “in a”, “plates” for “plate”, “drying” for “drying,”, “a thrips” for “an aphid”

[9] = system: Myzus persicae (Green Peach Aphid); assay: Activity against Myzus persicae, systemic via roots of pea seedlings; settings: 144 h, test rate of 24 ppm, roots of pea seedlings in test solution, 6 days
Procedure: Roots of pea seedlings infested with an aphid population of mixed ages were placed directly in the aqueous test solutions prepared from 10,000 DMSO stock solutions. The samples were assessed for mortality 6 days after placing seedlings in test solutions.

CCS(=O)(=O)c1cc(-n2cc(Cl)cn2)cnc1-c1nnc(-c2cc(C(F)(F)F)ccn2)n1C [Compound P7]
≥ 80%: mortality at 200 ppm [1] | percent control (mortality, anti-feedancy or growth inhibition) at 12.5 ppm [2] | percent effect (mortality or growth inhibition) at 200 ppm [3] | percent effect (mortality or growth inhibition) at 200 ppm [4] | mortality at 200 ppm [5] | mortality at 200 ppm [6] | percent effect (mortality or growth inhibition) at 200 ppm [7] | mortality at 200 ppm [8]

CCS(=O)(=O)c1cc(-c2ncccn2)cnc1-c1nnc(-c2cc(C(F)(F)F)ccn2)n1C [Compound P9, 2-[5-ethylsulfonyl-6-[4-methyl-5-[4-(trifluoromethyl)-2-pyridyl]-1,2,4-triazol-3-yl]-3-pyridyl]pyrimidine]
≥ 80%: mortality at 200 ppm [1] | percent control (mortality, anti-feedancy or growth inhibition) at 12.5 ppm [2] | percent effect (mortality or growth inhibition) at 200 ppm [3] | percent effect (mortality or growth inhibition) at 200 ppm [4] | mortality at 200 ppm [5] | mortality at 24 ppm [9] | mortality at 200 ppm [6] | percent effect (mortality or growth inhibition) at 200 ppm [7]

C=C(OCC)c1cnc(-c2nnc(-c3cc(C(F)(F)F)ccn3)n2C)c(S(=O)(=O)CC)c1 [Compound P13]
≥ 80%: mortality at 200 ppm [1] | percent effect (mortality or growth inhibition) at 200 ppm [3] | percent effect (mortality or growth inhibition) at 200 ppm [4] | mortality at 200 ppm [5] | mortality at 200 ppm [6] | mortality at 200 ppm [8]

CCS(=O)(=O)c1cc(-n2cnc(C#N)c2)cnc1-c1nnc(-c2cc(C(F)(F)F)ccn2)n1C [Compound P15]
≥ 80%: mortality at 24 ppm [9] | mortality at 200 ppm [8]

CCS(=O)(=O)c1cc(-c2ccc(C#N)cn2)cnc1-c1nnc(-c2cc(C(F)(F)F)ccn2)n1C [Compound P22]
≥ 80%: mortality at 200 ppm [1] | percent control (mortality, anti-feedancy or growth inhibition) at 12.5 ppm [2] | percent effect (mortality or growth inhibition) at 200 ppm [3] | percent effect (mortality or growth inhibition) at 200 ppm [4] | mortality at 200 ppm [5] | mortality at 200 ppm [6] | percent effect (mortality or growth inhibition) at 200 ppm [7] | mortality at 200 ppm [8]

CCS(=O)(=O)c1cc(-c2ccc(Cl)cn2)cnc1-c1nnc(-c2cc(C(F)(F)F)ccn2)n1C [Compound P25]
≥ 80%: mortality at 200 ppm [1] | percent control (mortality, anti-feedancy or growth inhibition) at 12.5 ppm [2] | percent effect (mortality or growth inhibition) at 200 ppm [3] | percent effect (mortality or growth inhibition) at 200 ppm [4] | percent effect (mortality or growth inhibition) at 200 ppm [7] | mortality at 200 ppm [8]

CCS(=O)(=O)c1cc(-c2cc(Cl)ccn2)cnc1-c1nnc(-c2cc(C(F)(F)F)ccn2)n1C [Compound P26]
≥ 80%: mortality at 200 ppm [1] | percent control (mortality, anti-feedancy or growth inhibition) at 12.5 ppm [2] | percent effect (mortality or growth inhibition) at 200 ppm [3] | percent effect (mortality or growth inhibition) at 200 ppm [4] | mortality at 200 ppm [5] | mortality at 200 ppm [6] | percent effect (mortality or growth inhibition) at 200 ppm [7] | mortality at 200 ppm [8]

CCS(=O)(=O)c1ccc(-c2ncccn2)nc1-c1nnc(-c2cc(C(F)(F)F)ccn2)n1C [Compound P39]
≥ 80%: mortality at 200 ppm [1] | percent control (mortality, anti-feedancy or growth inhibition) at 12.5 ppm [2] | percent effect (mortality or growth inhibition) at 200 ppm [3] | percent effect (mortality or growth inhibition) at 200 ppm [4] | mortality at 200 ppm [5] | mortality at 24 ppm [9] | percent effect (mortality or growth inhibition) at 200 ppm [7]

CCS(=O)(=O)c1cc(-n2cncn2)cnc1-c1nnc(-c2cc(C(F)(F)F)ncn2)n1C [Compound P46]
≥ 80%: percent effect (mortality or growth inhibition) at 200 ppm [4] | mortality at 200 ppm [5] | mortality at 24 ppm [9] | mortality at 200 ppm [6]

CCS(=O)(=O)c1ccc(-n2cncn2)nc1-c1nnc(-c2cc(C(F)(F)F)ncn2)n1C [Compound P47]
≥ 80%: percent effect (mortality or growth inhibition) at 200 ppm [4] | mortality at 200 ppm [5] | mortality at 24 ppm [9] | percent effect (mortality or growth inhibition) at 200 ppm [7]

CCS(=O)(=O)c1ccc(-c2ncccn2)nc1-c1nnc(-c2cc(C(F)(F)F)ncn2)n1C [Compound P54]
≥ 80%: percent effect (mortality or growth inhibition) at 200 ppm [3] | percent effect (mortality or growth inhibition) at 200 ppm [4] | mortality at 200 ppm [5] | mortality at 24 ppm [9] | mortality at 200 ppm [6] | percent effect (mortality or growth inhibition) at 200 ppm [7]
